Assay results: ChEMBL document CHEMBL5625197, “The mystery of titan hunter: Rationalized striking of the MAPK pathway via Newly synthesized 6-Indolylpyridone-3-Carbonitrile derivatives” (Eur J Med Chem, 2023)

Legend:
RXF 393 [1] = experiment: cells; format: functional; details: Homo sapiens, RXF 393, 96 h, time 4 day, read-out: GI
Description: Growth inhibition of human RXF 393 cells at 10 uM incubated for 4 days by MTT assay relative to control

HCT-116 [2] = experiment: cells; format: functional; details: Homo sapiens, HCT-116, 96 h, time 4 day, read-out: GI
Description: Growth inhibition of human HCT-116 cells at 10 uM incubated for 4 days by MTT assay relative to control

HOP-92 [3] = experiment: cells; format: functional; details: Homo sapiens, HOP-92, 96 h, time 4 day, read-out: GI
Description: Growth inhibition of human HOP-92 cells at 10 uM incubated for 4 days by MTT assay relative to control

SR [4] = experiment: cells; format: functional; details: Homo sapiens, 96 h, time 4 day, read-out: GI
Description: Growth inhibition of human SR cells at 10 uM incubated for 4 days by MTT assay relative to control

[5] = Selectivity index, ratio of GI50 for cytotoxicity against human HEK293 cells to GI50 for cytotoxicity against human RXF 393 cells
[6] = Cytotoxicity against human MRC5 cells assessed as cell growth inhibition incubated for 4 days by MTT assay
[7] = Selectivity index, ratio of GI50 for cytotoxicity against human MRC5 cells to GI50 for cytotoxicity against human HOP-92 cells
[8] = Selectivity index, ratio of GI50 for cytotoxicity against human PCS-800-011 cells to GI50 for cytotoxicity against human SR cells; format: toxicity, cell-based; details: PCS-800-011 cells versus SR cells, read-out: RatioGI50
HCT-116 [9] = experiment: Cytotoxicity against human HCT-116 cells assessed as cell growth inhibition incubated for 4 days by MTT assay; format: functional; details: HCT-116, 96 h, time 4 day
[10] = Cytotoxicity against human HEK293 cells assessed as cell growth inhibition incubated for 4 days by MTT assay
HOP-92 [11] = experiment: Cytotoxicity against human HOP-92 cells assessed as cell growth inhibition incubated for 4 days by MTT assay; format: functional; details: HOP-92, 96 h, time 4 day
[12] = Selectivity index, ratio of GI50 for cytotoxicity against human FHC cells to GI50 for cytotoxicity against human HCT-116 cells; format: toxicity, cell-based; details: FHC cells versus HCT-116 cells, read-out: RatioGI50
[13] = Cytotoxicity against human FHC cells assessed as cell growth inhibition incubated for 4 days by MTT assay
SR [14] = experiment: Cytotoxicity against human SR cells assessed as cell growth inhibition incubated for 4 days by MTT assay; format: functional; details: 96 h, time 4 day
[15] = Cytotoxicity against human PCS-800-011 cells assessed as cell growth inhibition incubated for 4 days by MTT assay
RXF 393 [16] = experiment: Cytotoxicity against human RXF 393 cells assessed as cell growth inhibition incubated for 4 days by MTT assay; format: functional; details: RXF 393, 96 h, time 4 day
[17] = Cytotoxicity against human PCS-800-011 cells assessed as fold change in cell growth inhibition incubated for 4 days by MTT assay; format: toxicity, cell-based; details: pcs-800-011, 96 h, time 4 day
HOP-92 [18] = experiment: Induction of apoptosis in human HOP-92 cells assessed as fold change in Bax gene expression by RT-PCR analysis; format: functional
[19] = target: Cyclin-dependent kinase 4 (Homo sapiens, UniProt P11802); experiment: Inhibition of CDK4 (unknown origin)
HOP-92 [20] = experiment: Induction of apoptosis in human HOP-92 cells assessed as fold change in ratio of Bax/Bcl-2 gene expression by RT-PCR analysis; format: functional
HOP-92 [21] = experiment: Induction of apoptosis in human HOP-92 cells assessed as fold change in PARP1 gene expression by RT-PCR analysis; format: functional
HOP-92 [22] = experiment: Induction of apoptosis in human HOP-92 cells assessed as fold change in p53 gene expression by RT-PCR analysis; format: functional
HOP-92 [23] = experiment: Induction of cell cycle arrest in human HOP-92 cells assessed as accumulation of cells at S phase (reference value: 29.57 %); format: functional
[24] = target: Epidermal growth factor receptor (Homo sapiens, UniProt P00533); experiment: Inhibition of wild type EGFR (unknown origin)
HOP-92 [25] = experiment: Induction of apoptosis in human HOP-92 cells assessed as total apoptotic rate by Annexin V/ PI staining based flow cytometry (reference value: 2.28 %); format: functional
HOP-92 [26] = experiment: Inhibition of cell invasion in human HOP-92 cells incubated for 15 to 20 mins by crystal violet staining based trans-well assay relative to control; format: functional; details: time 15-20 min
HOP-92 [27] = experiment: Induction of apoptosis in human HOP-92 cells assessed as fold change in Bcl-2 gene expression by RT-PCR analysis; format: functional
HOP-92 [28] = experiment: Induction of apoptosis in human HOP-92 cells assessed as necrosis rate by Annexin V/ PI staining based flow cytometry (reference value: 1.6 %); format: functional
HOP-92 [29] = experiment: Induction of apoptosis in human HOP-92 cells assessed as fold change in caspase-8 gene expression by RT-PCR analysis; format: functional
HOP-92 [30] = experiment: Induction of apoptosis in human HOP-92 cells assessed as fold change in caspase-9 gene expression by RT-PCR analysis; format: functional
HOP-92 [31] = experiment: Induction of cell cycle arrest in human HOP-92 cells assessed as accumulation of cells at G0/G1 phase (reference value: 54.83 %); format: functional
[32] = target: Hepatocyte growth factor receptor (Homo sapiens, UniProt P08581); experiment: Inhibition of c-Met (unknown origin)
[33] = target: Cyclin-dependent kinase 6 (Homo sapiens, UniProt Q00534); experiment: Inhibition of CDK6 (unknown origin)
[34] = target: Serine/threonine-protein kinase B-raf (Homo sapiens, UniProt P15056); experiment: Inhibition of wild type B-RAF (unknown origin)
HOP-92 [35] = experiment: Induction of apoptosis in human HOP-92 cells assessed as PARP1 gene expression level by RT-PCR analysis relative to control; format: functional
HOP-92 [36] = experiment: Induction of cell cycle arrest in human HOP-92 cells assessed as cell aggregation (reference value: 1.77 %); format: functional
HOP-92 [37] = experiment: Induction of apoptosis in human HOP-92 cells assessed as fold change in caspase-3 gene expression by RT-PCR analysis; format: functional
HOP-92 [38] = experiment: Induction of apoptosis in human HOP-92 cells assessed as late apoptotic rate by Annexin V/ PI staining based flow cytometry (reference value: 0.26 %); format: functional
HOP-92 [39] = experiment: Inhibition of cell migration in human HOP-92 cells incubated for 15 to 20 mins by crystal violet staining based trans-well assay relative to control; format: functional; details: time 15-20 min
HOP-92 [40] = experiment: Induction of cell cycle arrest in human HOP-92 cells assessed as accumulation of cells at G2/M phase (reference value: 15.6 %); format: functional
HOP-92 [41] = experiment: Inhibition of cell migration in human HOP-92 cells assessed as fold decrease in cell count incubated for 15 to 20 mins by crystal violet staining based trans-well assay; format: functional; details: time 15-20 min
HOP-92 [42] = experiment: Induction of apoptosis in human HOP-92 cells assessed as early apoptotic rate by Annexin V/ PI staining based flow cytometry (reference value: 0.42 %); format: functional
HOP-92 [43] = experiment: Induction of apoptosis in human HOP-92 cells assessed as fold change in TNFR1 gene expression by RT-PCR analysis; format: functional
[44] = target: Serine/threonine-protein kinase B-raf (Homo sapiens, UniProt P15056, V600E); experiment: Inhibition of B-RAF V600E mutant (unknown origin)
HOP-92 [45] = experiment: Induction of cell cycle arrest in human HOP-92 cells assessed as cell debris (reference value: 2.18 %); format: functional
HOP-92 [46] = experiment: Inhibition of colony formation in human HOP-92 cells incubated for 24 hrs by crystal violet staining based assay relative to control; format: functional
[47] = target: Epidermal growth factor receptor (Homo sapiens, UniProt P00533, T790M); experiment: Inhibition of EGFR T790M mutant (unknown origin)

Structure (SMILES): N#Cc1c(-c2ccc(O)c(O)c2)cc(-c2c[nH]c3ccccc23)[nH]c1=O
- inhibition of growth at 10 µM (RXF 393 [1]): 11%
- inhibition of growth at 10 µM (HCT-116 [2]): 9.54%
- inhibition of growth at 10 µM (HOP-92 [3]): 31.2%
- inhibition of growth at 10 µM (SR [4]): 69.8%

Structure (SMILES): N#Cc1c(-c2ccc(Cl)c(Cl)c2)cc(-c2c[nH]c3ccccc23)[nH]c1=O
- inhibition of growth at 10 µM (RXF 393 [1]): 75.8%
- inhibition of growth at 10 µM (HCT-116 [2]): 76.5%
- RatioGI50 [5]: 2.56
- GI50 at 96 h [6]: 56.1 µM
- inhibition of growth at 10 µM (HOP-92 [3]): 73.3%
- RatioGI50 [7]: 16.3
- selectivity ratio [8]: 8.02
- GI50 (HCT-116 [9]): 10.6 µM
- GI50 at 96 h [10]: 42.6 µM
- GI50 (HOP-92 [11]): 3.44 µM
- selectivity ratio [12]: 3.86
- inhibition of growth at 10 µM (SR [4]): 71.8%
- GI50 at 96 h [13]: 41 µM
- GI50 (SR [14]): 9.17 µM
- GI50 at 96 h [15]: 73.6 µM
- GI50 (RXF 393 [16]): 16.6 µM
- fold change (FC) [17]: 3.5

Structure (SMILES): N#Cc1c(-c2ccc(F)c(F)c2)cc(-c2c[nH]c3ccccc23)[nH]c1=O
- inhibition of growth at 10 µM (RXF 393 [1]): 65.7%
- inhibition of growth at 10 µM (HCT-116 [2]): 51%
- inhibition of growth at 10 µM (HOP-92 [3]): 53.1%
- inhibition of growth at 10 µM (SR [4]): 55.9%

Structure (SMILES): N#Cc1c(-c2cccc([N+](=O)[O-])c2)cc(-c2c[nH]c3ccccc23)[nH]c1=O
- inhibition of growth at 10 µM (RXF 393 [1]): 16.9%
- inhibition of growth at 10 µM (HCT-116 [2]): 6.36%
- inhibition of growth at 10 µM (HOP-92 [3]): 9.93%
- inhibition of growth at 10 µM (SR [4]): 18.1%

Structure (SMILES): N#Cc1c(-c2ccc(C(F)(F)F)cc2)cc(-c2c[nH]c3ccccc23)[nH]c1=O
- inhibition of growth at 10 µM (RXF 393 [1]): 71.6%
- inhibition of growth at 10 µM (HCT-116 [2]): 67.5%
- inhibition of growth at 10 µM (HOP-92 [3]): 56.7%
- inhibition of growth at 10 µM (SR [4]): 48.5%

Structure (SMILES): N#Cc1c(-c2ccc(Cl)cc2Cl)cc(-c2c[nH]c3ccccc23)[nH]c1=O
- inhibition of growth at 10 µM (RXF 393 [1]): 58.4%
- fold change (FC) (HOP-92 [18]): 5.49
- inhibition of growth at 10 µM (HCT-116 [2]): 82.8%
- IC50 [19]: 0.095 µM
- fold change (FC) (HOP-92 [20]): 30.5
- fold change (FC) (HOP-92 [21]): 0.23
- RatioGI50 [5]: 7.18
- fold change (FC) (HOP-92 [22]): 5.97
- Activity (HOP-92 [23]): 34.11%
- GI50 at 96 h [6]: 28.5 µM
- IC50 [24]: 0.281 µM
- Activity (HOP-92 [25]): 46.71%
- inhibition (INH) (HOP-92 [26]): 49.99%
- inhibition of growth at 10 µM (HOP-92 [3]): 79.8%
- fold change (FC) (HOP-92 [27]): 0.18
- Activity (HOP-92 [28]): 7.62%
- fold change (FC) (HOP-92 [29]): 2.99
- RatioGI50 [7]: 37.87
- fold change (FC) (HOP-92 [30]): 6.75
- Activity (HOP-92 [31]): 59.18%
- IC50 [32]: 0.205 µM
- IC50 [33]: 0.184 µM
- IC50 [34]: 0.112 µM
- Activity (HOP-92 [35]): 20%
- Activity (HOP-92 [36]): 1.88%
- fold change (FC) (HOP-92 [37]): 7.93
- selectivity ratio [8]: 18
- GI50 (HCT-116 [9]): 2.53 µM
- Activity (HOP-92 [38]): 14.91%
- inhibition (INH) (HOP-92 [39]): 61.59%
- GI50 at 96 h [10]: 22.4 µM
- GI50 (HOP-92 [11]): 0.75 µM
- selectivity ratio [12]: 10.6
- Activity (HOP-92 [40]): 6.71%
- fold change (FC) (HOP-92 [41]): 2.6
- inhibition of growth at 10 µM (SR [4]): 74.7%
- Activity (HOP-92 [42]): 24.18%
- GI50 at 96 h [13]: 26.8 µM
- fold change (FC) (HOP-92 [43]): 0.27
- IC50 [44]: 0.083 µM
- GI50 (SR [14]): 2.77 µM
- Activity (HOP-92 [45]): 2.12%
- GI50 at 96 h [15]: 49.7 µM
- GI50 (RXF 393 [16]): 3.12 µM
- inhibition (INH) (HOP-92 [46]): 61.6%
- fold change (FC) [17]: 2.3
- IC50 [47]: 0.069 µM

Structure (SMILES): N#Cc1c(-c2cccnc2)cc(-c2c[nH]c3ccccc23)[nH]c1=O
- inhibition of growth at 10 µM (RXF 393 [1]): -0.69%
- inhibition of growth at 10 µM (HCT-116 [2]): 9.94%
- inhibition of growth at 10 µM (HOP-92 [3]): 13%
- inhibition of growth at 10 µM (SR [4]): 13.2%

Structure (SMILES): N#Cc1c(-c2cccc(Cl)c2)cc(-c2c[nH]c3ccccc23)[nH]c1=O
- inhibition of growth at 10 µM (RXF 393 [1]): 67.5%
- inhibition of growth at 10 µM (HCT-116 [2]): 51.1%
- inhibition of growth at 10 µM (HOP-92 [3]): 38.6%
- inhibition of growth at 10 µM (SR [4]): 71.9%
